From patent publication US20230146455A1, “TREATMENT OF INFLAMMATORY DISEASES WITH PEPTIDES AND PHARMACEUTICAL COMPOSITIONS” (Yuyu Pharma, Inc., priority 2020, published 2023)
“And” between values parts separate entries of the source, which are not always exact repeats. Identical values can stand only once. Where a SMILES comes first, the peptide text is derived from it. [ ]: non-standard residue; d: D form. Hyp = O=C(O)[C@@H]1C[C@@H](O)CN1

Tests used:
[1] = test system: IL-1 beta/IL-1F2; assay: Example 8 main study Luminex, LPS hPBMCs: IL-1 beta/IL-1F2; type: cell-based, human
Description: (§1) Human PBMCs were pretreated with YY-101, YDE-011, YDE-043 or reference compound; Xiidra® at various concentration (ranging from […] to 500 nM) for 2 h before stimulation. An equal volume of 0.5% DMSO was used as a vehicle control. Then, the cells were treated with LPS at 5 ug/ml, which was selected based on the pilot study. The supernatants from treated cells were harvested at 24 h and placed in a 96 well for Luminex cytokine & chemokine profiling using a Luminex 200 multiplex assay (Luminex; R&D system, USA).
(§2) The main study arm with triplicate wells per group in a 24-well plate: • 1. Blank • 2. PBMC: 0.5% DMSO • 3. PBMC+LPS (5 ug/ml) • 4. PBMC+YY-101 500 nM • 5. PBMC+YY-101 50 nM • 6. PBMC+YY-101 5 nM • 7. PBMC+YY-101 0.5 nM • 8. PBMC+LPS (5 ug/ml)+Xiidra® 500 nM • 9. PBMC+LPS (5 ug/ml)+Xiidra® 50 nM • 10. PBMC+LPS (5 ug/ml)+Xiidra® 5 nM • 11. PBMC+LPS (5 ug/ml)+Xiidra® 0.5 nM • 12. PBMC+LPS (5 ug/ml)+Xiidra® 0.05 nM • 13. PBMC+LPS (5 ug/ml)+Xiidra® 0.005 nM • 14. PBMC+LPS (5 ug/ml)+YY-101 500 nM • 15. PBMC+LPS (5 ug/ml)+YY-101 50 nM • 16. PBMC+LPS (5 ug/ml)+YY-101 5 nM • 17. PBMC+LPS (5 ug/ml)+YY-101 0.5 nM • 18. PBMC+LPS (5 ug/ml)+YY-101 0.05 nM • 19. PBMC+LPS (5 ug/ml)+YY-101 0.005 nM • 20. PBMC+LPS (5 ug/ml)+YDE-011 500 nM • 21. PBMC+LPS (5 ug/ml)+YDE-011 50 nM • 22. PBMC+LPS (5 ug/ml)+YDE-011 5 nM • 23. PBMC+LPS (5 ug/ml)+YDE-011 0.5 nM • 24. PBMC+LPS (5 ug/ml)+YDE-011 0.05 nM • 25. PBMC+LPS (5 ug/ml)+YDE-011 0.005 nM • 26. PBMC+LPS (5 ug/ml)+YDE-043 500 nM • 27. PBMC+LPS (5 ug/ml)+YDE-043 50 nM • 28. PBMC+LPS (5 ug/ml)+YDE-043 5 nM • 29. PBMC+LPS (5 ug/ml)+YDE-043 0.5 nM • 30. PBMC+LPS (5 ug/ml)+YDE-043 0.05 nM • 31. PBMC+LPS (5 ug/ml)+YDE-043 0.005 nM
(§3) Multiplex assay was used to measure 30 cytokines and chemokines. The 1:200 diluted cell supernatant and serial dilution of the standard were dispensed into a 96 well plate at 50 ul/well. Then, the pre-mixed cocktail of antibody-coated magnetic beads was dispensed at 50 ul/well and incubated at room temperature for 2 h in a horizontal orbital microplate shaker at 800±500 rpm. The beads were washed using a magnetic device to prevent loss. The biotin-antibody was dispensed in 50 ul of each well and incubated at room temperature for 1 h in a shaker at 800±500 rpm. After washing, streptavidin-PE was added at 50 ul/well and incubated at room temperature for 30 min in a shaker under the same conditions. Finally, after washing, wash buffer (100 ul/well) was added to the plate and incubated in a shaker for 2 min. The Luminex™ 200 setting were set according to the manufacturer's protocol. The data was calculated with a standard five-parameter logistic nonlinear regression analysis of the data (xPonent software 4.2, USA). Results were presented as concentration (ng/ml or pg/ml).

[2] = test system: IL-2; assay: Example 8 main study Luminex, LPS hPBMCs: IL-2; type: cell-based, human; conditions: for IL-2 Concentration, individual wells / IL-2 MFI, individual wells / IL-2 MFI, Mean / IL-2 Concentration, Mean: 24 h; for IL-2 MFI, Mean: LPS alone Mean 80.5; for IL-2 Concentration, Mean: LPS alone Mean 3988.7
Description: as §1, §2, §3

[3] = PBMC + LPS(5 ug/ml) + test article 0.005 nM, Mean
[4] = PBMC + LPS(5 ug/ml) + test article 0.005 nM, individual replicates
[5] = PBMC + LPS(5 ug/ml) + test article 0.05 nM, Mean
[6] = PBMC + LPS(5 ug/ml) + test article 0.05 nM, individual replicates
[7] = PBMC + LPS(5 ug/ml) + test article 0.5 nM, Mean
[8] = PBMC + LPS(5 ug/ml) + test article 0.5 nM, individual replicates
[9] = PBMC + LPS(5 ug/ml) + test article 5 nM, Mean
[10] = PBMC + LPS(5 ug/ml) + test article 5 nM, individual replicates
[11] = PBMC + LPS(5 ug/ml) + test article 50 nM, Mean
[12] = PBMC + LPS(5 ug/ml) + test article 50 nM, individual replicates
[13] = PBMC + LPS(5 ug/ml) + test article 500 nM, Mean
[14] = PBMC + LPS(5 ug/ml) + test article 500 nM, individual replicates
[15] = PBMC + LPS(5 ug/ml) + compound 0.005 nM
[16] = PBMC + LPS(5 ug/ml) + compound 0.05 nM
[17] = PBMC + LPS(5 ug/ml) + compound 0.5 nM
[18] = PBMC + LPS(5 ug/ml) + compound 5 nM
[19] = PBMC + LPS(5 ug/ml) + compound 50 nM
[20] = PBMC + LPS(5 ug/ml) + compound 500 nM

CC(C)C[C@H](NC(=O)[C@H](CCC(N)=O)NC(=O)CNC(=O)[C@@H]1C[C@@H](O)CN1)C(=O)NCC(=O)O [YDE-043] (H-[Hyp]GQLG-OH; N-terminus and C-terminus assumed)
LPS-induced IL-1b levels (in words) ([1]; LPS 5 ug/mL 24 hrs): significantly lowered
IL-1 beta/IL-1F2 Concentration [1, 3]: 5499.4 pg/mL
IL-1 beta/IL-1F2 MFI [1, 3]: 100.0
IL-1 beta/IL-1F2 Concentration [1, 4]: 4547.7 pg/mL and 5320.3 pg/mL and 6630.3 pg/mL
IL-1 beta/IL-1F2 MFI [1, 4]: 84.0 and 97.0 and 119.0
IL-1 beta/IL-1F2 Concentration [1, 5]: 4458.6 pg/mL
IL-1 beta/IL-1F2 MFI [1, 5]: 82.5
IL-1 beta/IL-1F2 Concentration [1, 6]: 4488.3 pg/mL and 4428.9 pg/mL and 4458.6 pg/mL
IL-1 beta/IL-1F2 MFI [1, 6]: 83.0 and 82.0 and 82.5
IL-1 beta/IL-1F2 Concentration [1, 7]: 4725.9 pg/mL
IL-1 beta/IL-1F2 MFI [1, 7]: 87.0
IL-1 beta/IL-1F2 Concentration [1, 8]: 4963.6 pg/mL and 4785.3 pg/mL and 4428.9 pg/mL
IL-1 beta/IL-1F2 MFI [1, 8]: 91.0 and 88.0 and 82.0
IL-1 beta/IL-1F2 Concentration [1, 9]: 5379.8 pg/mL
IL-1 beta/IL-1F2 MFI [1, 9]: 98.0
IL-1 beta/IL-1F2 Concentration [1, 10]: 5379.8 pg/mL and 5558.3 pg/mL and 5201.4 pg/mL
IL-1 beta/IL-1F2 MFI [1, 10]: 98.0 and 101.0 and 95.0
IL-1 beta/IL-1F2 Concentration [1, 11]: 5280.8 pg/mL
IL-1 beta/IL-1F2 MFI [1, 11]: 96.3
IL-1 beta/IL-1F2 Concentration [1, 12]: 5588.1 pg/mL and 5469.1 pg/mL and 4785.3 pg/mL
IL-1 beta/IL-1F2 MFI [1, 12]: 101.5 and 99.5 and 88.0
IL-1 beta/IL-1F2 Concentration [1, 13]: 4508.2 pg/mL
IL-1 beta/IL-1F2 MFI [1, 13]: 83.3
IL-1 beta/IL-1F2 Concentration [1, 14]: 4428.9 pg/mL and 4191.5 pg/mL and 4904.1 pg/mL
IL-1 beta/IL-1F2 MFI [1, 14]: 82.0 and 78.0 and 90.0
IL-2 Concentration, individual wells [2, 15]: 2239.1 pg/mL and 2317.3 pg/mL and 3058.1 pg/mL
IL-2 MFI, individual wells [2, 15]: 58.0 and 59.0 and 68.5
IL-2 MFI, Mean [2, 15]: 61.8
IL-2 Concentration, Mean [2, 15]: 2538.2 pg/mL
IL-2 Concentration, individual wells [2, 16]: 2004.2 pg/ml and 2239.1 pg/ml (2×)
IL-2 MFI, individual wells [2, 16]: 55.0 and 58.0 (2×)
IL-2 MFI, Mean [2, 16]: 57.0
IL-2 Concentration, Mean [2, 16]: 2160.8 pg/mL
IL-2 Concentration, individual wells [2, 17]: 2082.5 pg/mL and 2317.3 pg/mL and 2121.7 pg/mL
IL-2 MFI, individual wells [2, 17]: 56.0 and 59.0 and 56.5
IL-2 MFI, Mean [2, 17]: 57.2
IL-2 Concentration, Mean [2, 17]: 2173.8 pg/mL
IL-2 Concentration, individual wells [2, 18]: 2785.6 pg/mL and 2395.5 pg/mL and 2473.6 pg/mL
IL-2 MFI, individual wells [2, 18]: 65.0 and 60.0 and 61.0
IL-2 MFI, Mean [2, 18]: 62.0
IL-2 Concentration, Mean [2, 18]: 2551.6 pg/mL
IL-2 Concentration, individual wells [2, 19]: 2551.7 pg/mL and 2395.5 pg/mL and 2239.1 pg/mL
IL-2 MFI, individual wells [2, 19]: 62.0 and 60.0 and 58.0
IL-2 MFI, Mean [2, 19]: 60.0
IL-2 Concentration, Mean [2, 19]: 2395.4 pg/mL
IL-2 Concentration, individual wells [2, 20]: 2004.2 pg/mL and 2082.5 pg/mL and 2239.1 pg/mL
IL-2 MFI, individual wells [2, 20]: 55.0 and 56.0 and 58.0
IL-2 MFI, Mean [2, 20]: 56.3
IL-2 Concentration, Mean [2, 20]: 2108.6 pg/mL
LPS-induced IL-2 (in words) ([2]; at as low as 5 μM, LPS 5 ug/mL 24 hrs): significantly reduced
